This assay deals with T1, SP_0166 (Streptococcus pneumoniae, UniProt A0A0H2UNA7).
T1 construct: full length, 368 residues, 42,757 Da; pET-28a(+) BamHI/XhoI, C-terminal 6xHis tag kept; expressed in E. coli BL21(DE3)
Nature of the assay: LC-MS/MS of agmatine formed from arginine. The assay is classed as biochemical.

Like-named read-outs stand apart in the source and are kept apart here.

T1 sequence (A0A0H2UNA7 entry or part of it): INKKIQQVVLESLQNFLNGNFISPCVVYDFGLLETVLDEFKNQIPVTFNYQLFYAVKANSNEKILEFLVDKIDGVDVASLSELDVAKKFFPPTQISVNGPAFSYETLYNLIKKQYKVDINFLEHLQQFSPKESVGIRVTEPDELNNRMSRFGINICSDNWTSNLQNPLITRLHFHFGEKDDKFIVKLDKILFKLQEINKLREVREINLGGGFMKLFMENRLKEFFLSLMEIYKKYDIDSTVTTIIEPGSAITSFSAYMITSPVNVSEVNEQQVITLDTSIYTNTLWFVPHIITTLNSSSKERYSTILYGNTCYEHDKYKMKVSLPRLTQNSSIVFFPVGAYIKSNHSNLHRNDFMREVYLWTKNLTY

As a reminder, the IC50 is the midpoint of a concentration-inhibition curve. In the case of `N=C(N)NCCCC(N)(C(=O)O)C(F)F` (centres unmarked) [DFMA], the IC50 (read-out: DFMA IC50) worked out at 0.0216 ± 0.0104 mM. Turning to `NCCCC(N)(C(=O)O)C(F)F` (centres unmarked) [DFMO], the half-inhibitory concentration (IC50) (read-out: DFMO IC50) amounted to 27 ± 4.5 mM.

These data come from PMC11048482 (Biomolecules, 2024).
